One assay has as its target EGFR Exon20NPG (Homo sapiens (Human), UniProt P00533, INS770NPG). Nature of the assay: TR-FRET assay for ERBB kinases. The settings on record: geometric mean if measured more than once. The format is biochemical. As for the experimental part: (§1) TR-FRET Assay for ERBB Kinases
(§2) All compounds and PROTACs were serially diluted in three-fold increments using 100% DMSO, followed by an intermediate 10-fold dilution using Buffer A (50 mM HEPES, pH 7.5, 50 mM NaCl, 10 mM MgCl2, 1 mM DTT, and 0.1% Pluronic F-68). Two microliters of serially diluted compound or PROTAC were then transferred to black 384-well Proxiplates (PerkinElmer, #6008260) using an Integra Viaflo96. Next, 10 uL of protein kinase in Buffer A was added to each well of the assay plate and pre-incubated with compound for 10 minutes. Kinase reactions were then initiated by addition of 5 uL substrate mix containing 3 mM ATP and 30 uM fluorescein-labeled Poly-GluTyr (Thermo Fisher, #PV3610) in Buffer A and allowed to proceed for 10 minutes at room temperature. Reactions were quenched by addition of a 5 uL mixture containing 5 nM LanthaScreen® Tb-pY20 Antibody (Thermo Fisher, #PV3552) and 40 mM EDTA in Buffer A. Assay plates were then read using a Synergy2 (Biotek Instruments, Winooski, Vt.) via excitation thru a 340/20 nm bandpass filter and emission collected thru 490/10 nm (donor) and 520/25 nm (acceptor) bandpass filters.
Background: Time-resolved FRET reads energy transfer from a long-lived donor to a nearby acceptor.

Another assay deals with EGFR WT (Homo sapiens (Human), UniProt P00533). Nature of the assay: TR-FRET assay for ERBB kinases. Format: biochemical. The settings on record: geometric mean if measured more than once. How it is done: as §1
Chain of EGFR WT (P00533 25-1210): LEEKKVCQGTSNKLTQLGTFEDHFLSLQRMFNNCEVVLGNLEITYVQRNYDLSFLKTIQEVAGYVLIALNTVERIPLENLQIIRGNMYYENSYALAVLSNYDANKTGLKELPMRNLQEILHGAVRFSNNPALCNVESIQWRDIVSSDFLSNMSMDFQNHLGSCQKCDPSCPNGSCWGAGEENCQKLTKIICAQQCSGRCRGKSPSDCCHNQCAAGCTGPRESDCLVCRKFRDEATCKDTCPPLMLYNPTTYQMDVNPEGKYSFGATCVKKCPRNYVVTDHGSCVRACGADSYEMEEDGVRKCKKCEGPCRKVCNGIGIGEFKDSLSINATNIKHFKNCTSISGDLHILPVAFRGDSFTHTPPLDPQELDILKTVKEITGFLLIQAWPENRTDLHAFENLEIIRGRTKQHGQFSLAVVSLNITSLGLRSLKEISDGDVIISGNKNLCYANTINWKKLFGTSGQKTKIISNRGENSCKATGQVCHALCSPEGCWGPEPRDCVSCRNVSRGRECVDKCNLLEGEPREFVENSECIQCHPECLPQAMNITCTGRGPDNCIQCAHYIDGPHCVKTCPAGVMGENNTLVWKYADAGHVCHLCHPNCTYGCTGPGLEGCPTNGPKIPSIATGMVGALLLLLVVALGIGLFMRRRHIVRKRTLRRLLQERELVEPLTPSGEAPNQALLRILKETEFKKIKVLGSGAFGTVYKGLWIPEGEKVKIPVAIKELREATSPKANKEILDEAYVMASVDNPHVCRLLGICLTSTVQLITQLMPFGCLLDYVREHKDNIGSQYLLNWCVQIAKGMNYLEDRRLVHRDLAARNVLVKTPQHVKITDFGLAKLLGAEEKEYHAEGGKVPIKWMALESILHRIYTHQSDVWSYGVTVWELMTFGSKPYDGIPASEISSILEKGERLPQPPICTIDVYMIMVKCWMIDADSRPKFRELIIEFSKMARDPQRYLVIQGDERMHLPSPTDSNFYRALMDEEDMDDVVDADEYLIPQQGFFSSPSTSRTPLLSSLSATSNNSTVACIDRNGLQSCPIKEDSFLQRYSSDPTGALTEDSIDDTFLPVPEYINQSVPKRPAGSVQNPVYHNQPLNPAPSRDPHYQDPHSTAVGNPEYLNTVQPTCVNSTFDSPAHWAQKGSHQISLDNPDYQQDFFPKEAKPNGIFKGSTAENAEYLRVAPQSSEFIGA
as §2, with “Two microliters of serially diluted compound or PROTAC were then transferred to black 384-well Proxiplates (PerkinElmer, #6008260) using an Integra Viaflo96.” left out

Another assay deals with EGFR L858R/T790M/C797S (Homo sapiens (Human), UniProt P00533, C797S/L858R/T790M). Kind of assay: TR-FRET assay for ERBB kinases. The format is biochemical. Particulars: geometric mean if measured more than once. How it is done:
as §1
as §2, with “Two microliters of serially diluted compound or PROTAC were then transferred to black 384-well Proxiplates (PerkinElmer, #6008260) using an Integra Viaflo96.” left out

The target in another assay is EGFR L858R/T790M (Homo sapiens (Human), UniProt P00533, L858R/T790M). Nature of the assay: TR-FRET assay for ERBB kinases. The format is biochemical. Particulars: geometric mean if measured more than once. How it is done: as §1
as §2, with “Two microliters of serially diluted compound or PROTAC were then transferred to black 384-well Proxiplates (PerkinElmer, #6008260) using an Integra Viaflo96.” left out

Assay [1] addresses EGFR L858R/T790M/C797S triple mutant (H520*) (Homo sapiens (Human), UniProt P00533, C797S/L858R/T790M). Nature of the assay: EGFR protein degradation assay (Western blot). Particulars: 72 hours, 300 nM to 10 nM. The format is cell-based. As for the experimental part:
EGFR Protein Degradation assay
Cells were incubated overnight at 37° C., 5% CO2 prior to compound addition. A 10 mM compound stock in DMSO was serially diluted in DMSO to provide the following stock concentrations: 1, 0.3, 0.1, 0.03 and 0.01 mM. An appropriate volume of each compound dilution, together with a DMSO vehicle control, was added to media to provide a 2× compound solution. […] At the end of the compound treatment, cells were washed once with ice-cold phosphate-buffered saline (PBS) and treated with lysis solution (1× lysis buffer, Cell Signaling Technologies (CST #9803) supplemented with Piarce™ protease inhibitors, #A32953, Thermo Fisher Scientific, TFS). Lysates were collected and clarified of cell debris by spinning at 10K rpm for 10 minutes. A specific volume of supernatant was retrieved for protein quantification (Pierce™ BCA kit, TFS #23225) and for Western analysis. Loading buffer supplemented with EDTA and reducing agent was added to each supernatant. A specific volume of supernatant (determined by protein assay: […] loaded per sample) was loaded into a NuPAGE™ 4-12% Bis-Tris gel (TFS). Samples were run at 165V in MOPS running buffer for 2 hours and then transferred to PVDF blotting membrane using a dry blotting system (iBlot2, TFS). Membranes were blocked in Tris-buffered saline supplemented with Tween, 0.1% (TBST) containing 5% non-fat dry milk, (AmericanBio). Following block, membranes were washed once with TBST. […] Membranes were washed 3× with TBST prior to addition of secondary antibody (1:10 000, anti-rabbit HRP-linked, CST #7074) in TBST with 3% BSA and then incubated at room temperature for one hour. Membranes were then washed 3× with TBS and signal developed by exposure to developer (SuperSignal West Femto, TFS) for 5 minutes. Membranes were then immediately imaged using a BioRad Chemidoc.
For orientation: Immunoblotting shows a protein as a band on a membrane.

Each structure is given as a SMILES string.

Usually IC50 stands for the concentration at which inhibition is half-maximal.

Chain of EGFR Exon20NPG (P00533 other isoform, or with tags, fused parts or gaps del 1-694/ins NPG behind 770 limits assumed): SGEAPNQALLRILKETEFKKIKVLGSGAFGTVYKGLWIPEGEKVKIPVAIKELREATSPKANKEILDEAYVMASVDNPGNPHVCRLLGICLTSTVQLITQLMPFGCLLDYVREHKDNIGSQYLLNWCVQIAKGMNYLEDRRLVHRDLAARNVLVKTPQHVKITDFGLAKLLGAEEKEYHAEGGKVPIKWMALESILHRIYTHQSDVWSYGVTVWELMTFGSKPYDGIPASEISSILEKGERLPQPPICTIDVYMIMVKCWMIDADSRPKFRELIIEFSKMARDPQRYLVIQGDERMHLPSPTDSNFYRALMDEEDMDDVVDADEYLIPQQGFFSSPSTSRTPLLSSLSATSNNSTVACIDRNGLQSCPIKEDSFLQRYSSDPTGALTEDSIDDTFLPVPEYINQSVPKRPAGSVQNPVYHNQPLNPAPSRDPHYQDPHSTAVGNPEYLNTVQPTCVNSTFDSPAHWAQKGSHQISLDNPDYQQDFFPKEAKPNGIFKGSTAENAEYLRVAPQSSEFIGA
Chain of EGFR L858R/T790M/C797S (P00533 25-1210 T790M/C797S/L858R): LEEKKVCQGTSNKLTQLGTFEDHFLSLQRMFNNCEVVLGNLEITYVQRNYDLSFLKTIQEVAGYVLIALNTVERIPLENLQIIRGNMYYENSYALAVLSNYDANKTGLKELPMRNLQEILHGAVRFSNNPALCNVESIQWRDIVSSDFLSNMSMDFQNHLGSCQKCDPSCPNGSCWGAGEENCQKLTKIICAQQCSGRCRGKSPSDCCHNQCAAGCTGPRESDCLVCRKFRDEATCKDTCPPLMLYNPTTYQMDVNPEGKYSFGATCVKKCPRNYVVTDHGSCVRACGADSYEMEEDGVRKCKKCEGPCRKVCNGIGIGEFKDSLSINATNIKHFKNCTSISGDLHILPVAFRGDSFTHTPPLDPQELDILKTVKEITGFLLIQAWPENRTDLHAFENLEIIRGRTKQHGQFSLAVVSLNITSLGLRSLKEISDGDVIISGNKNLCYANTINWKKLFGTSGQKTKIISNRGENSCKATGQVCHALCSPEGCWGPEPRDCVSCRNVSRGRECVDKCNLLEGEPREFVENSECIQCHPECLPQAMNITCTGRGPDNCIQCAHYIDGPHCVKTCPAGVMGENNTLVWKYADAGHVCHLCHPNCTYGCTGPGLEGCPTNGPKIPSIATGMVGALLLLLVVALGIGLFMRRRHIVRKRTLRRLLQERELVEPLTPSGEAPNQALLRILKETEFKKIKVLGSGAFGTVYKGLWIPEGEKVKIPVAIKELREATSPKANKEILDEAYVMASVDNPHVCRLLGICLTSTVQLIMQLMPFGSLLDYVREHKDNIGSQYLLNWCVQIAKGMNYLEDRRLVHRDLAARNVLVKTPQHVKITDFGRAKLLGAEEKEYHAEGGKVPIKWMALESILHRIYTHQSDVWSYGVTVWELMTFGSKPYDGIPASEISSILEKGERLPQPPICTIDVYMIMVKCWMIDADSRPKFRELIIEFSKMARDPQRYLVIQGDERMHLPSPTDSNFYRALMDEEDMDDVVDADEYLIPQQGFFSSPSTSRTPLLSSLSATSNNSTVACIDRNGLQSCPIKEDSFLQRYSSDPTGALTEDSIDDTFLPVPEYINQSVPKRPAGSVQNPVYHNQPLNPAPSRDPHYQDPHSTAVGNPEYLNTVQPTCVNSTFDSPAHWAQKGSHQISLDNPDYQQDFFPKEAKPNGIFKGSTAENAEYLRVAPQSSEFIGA
Chain of EGFR L858R/T790M/C797S triple mutant (H520*) (P00533 25-1210 T790M/C797S/L858R): as above

Consider `O=C1CCC(N2C(=O)c3ccc(OCCOCCOCCOCCCc4cccc5c4C(=O)N(C(C(=O)Nc4nccs4)c4cc(F)ccc4O)C5)cc3C2=O)C(=O)N1` (centres unmarked) [Example 283, 2-(7-(3-(2-(2-(2-((2-(2,6-dioxopiperidin-3-yl)-1,3-dioxoisoindolin-5-yl)oxy)ethoxy)ethoxy)ethoxy)propyl)-1-oxoisoindolin-2-yl)-2-(5-fluoro-2-hydroxyphenyl)-N-(thiazol-2-yl)acetamide], for which the IC50 on EGFR Exon20NPG was found to be 4600 nM; at EGFR WT, 1200 nM; on EGFR L858R/T790M/C797S, 820 nM; at EGFR L858R/T790M it was 2800 nM. In assay [1], the “EGFR protein remaining, EGFR L858R/T790M/C797S triple mutant” value (from here on “EGFR protein remaining”) was “C (>80% EGFR protein remaining after 72 hours of incubation with the test compound at a concentration of 300 nM)”.

Consider `O=C1CCC(N2C(=O)c3ccc(N4CCC(CN5CCC(OCCCc6cccc7c6C(=O)N(C(C(=O)Nc6nccs6)c6cc(F)ccc6O)C7)CC5)CC4)cc3C2=O)C(=O)N1` (centres unmarked) [compound 297], for which the half-maximal inhibitory concentration (IC50) at EGFR WT amounted to 1800 nM; at EGFR L858R/T790M/C797S, 310 nM; on EGFR L858R/T790M, 1800 nM. Besides, the “EGFR protein remaining” value in assay [1] is “B (≤80% and >50% EGFR protein remaining after 72 hours of incubation with the test compound at a concentration between 300 nM and 10 nM)”.

As to `O=C1CCC(N2C(=O)c3ccc(N4CCC(CN5CCC(OCC#Cc6cccc7c6C(=O)N(C(C(=O)Nc6nccs6)c6cc(F)ccc6O)C7)CC5)CC4)cc3C2=O)C(=O)N1` (centres unmarked) [compound 290], the IC50 on EGFR WT turned out to be 1100 nM; at EGFR L858R/T790M/C797S, 140 nM; on EGFR L858R/T790M, 2700 nM. Moreover, the “EGFR protein remaining” value in assay [1] is “B (≤80% and >50% EGFR protein remaining after 72 hours of incubation with the test compound at a concentration between 300 nM and 10 nM)”.

For `O=C1CCC(N2C(=O)c3cccc(NCCOCCOCCOCCOCCOCCOCCCc4cccc5c4C(=O)N(C(C(=O)Nc4nccs4)c4cc(F)ccc4O)C5)c3C2=O)C(=O)N1` (centres unmarked) [compound 300], the values for the IC50 at EGFR WT, on EGFR L858R/T790M/C797S and on EGFR L858R/T790M were 2700 nM, 3100 nM and 20000 nM, respectively. The “EGFR protein remaining” value in assay [1] was “C (>80% EGFR protein remaining after 72 hours of incubation with the test compound at a concentration of 300 nM)”.

`Cc1ncsc1-c1ccc([C@H](C)NC(=O)[C@@H]2C[C@@H](O)CN2C(=O)[C@@H](NC(=O)COCCOCCOCCc2ccc(OC3CCN(c4nccc(Nc5cc6c(cn5)nc(C)n6C(C)C)n4)CC3)cc2)C(C)(C)C)cc1` [Example 291, (2S,4R)-1-((S)-2-(Tert-butyl)-14-(4-((1-(4-((1-isopropyl-2-methyl-1H-imidazo[4,5-c]pyridin-6-yl)amino)pyrimidin-2-yl)piperidin-4-yl)oxy)phenyl)-4-oxo-6,9,12-trioxa-3-azatetradecanoyl)-4-hydroxy-N—((S)-1-(4-(4-methylthiazol-5-yl)phenyl)ethyl)pyrrolidine-2-carboxamide]: the 50% inhibitory concentration (IC50) was 14000 nM on EGFR WT, greater than 60000 nM on EGFR L858R/T790M/C797S and greater than 60000 nM on EGFR L858R/T790M. Besides, in assay [1], the “EGFR protein remaining” value is recorded as “C (>80% EGFR protein remaining after 72 hours of incubation with the test compound at a concentration of 300 nM)”.

As to `COC1CCN(c2nccc(Nc3cc4c(cn3)nc(COCCN3CCN(c5ccc(O[C@H]6C[C@H](OCC(=O)N[C@H](C(=O)N7C[C@H](O)C[C@H]7C(=O)NCc7ccc(-c8scnc8C)cc7)C(C)(C)C)C6)cc5)CC3)n4C(C)C)n2)CC1` [Example 302, (2S,4R)-4-hydroxy-1-((S)-2-(2-((1r,3s)-3-(4-(4-(2-((1-isopropyl-6-((2-(4-methoxypiperidin-1-yl)pyrimidin-4-yl)amino)-1H-imidazo[4,5-c]pyridin-2-yl)methoxy)ethyl)piperazin-1-yl)phenoxy)cyclobutoxy)acetamido)-3,3-dimethylbutanoyl)-N-(4-(4-methylthiazol-5-yl)benzyl)pyrrolidine-2-carboxamide], the IC50 on EGFR WT was greater than 30000 nM; on EGFR L858R/T790M/C797S it was 320 nM; on EGFR L858R/T790M, 670 nM. In addition, the “EGFR protein remaining” value in assay [1] was “A (≤50% EGFR protein remaining after 72 hours of incubation with the test compound at a concentration between 300 nM and 10 nM)”.

Consider `Cc1ncsc1-c1ccc([C@H](C)NC(=O)[C@H]2C[C@H](O)CN2C(=O)[C@@H](NC(=O)COCCOCCOCCOCCOCCOc2ccc(-c3nccc(Nc4cc5c(cn4)nc(C)n5C(C)C)n3)cc2)C(C)(C)C)cc1` [compound 280], for which the IC50 at EGFR Exon20NPG, on EGFR WT, at EGFR L858R/T790M/C797S and at EGFR L858R/T790M was greater than 30000 nM throughout. For the same compound, in assay [1], the “EGFR protein remaining” value is “C (>80% EGFR protein remaining after 72 hours of incubation with the test compound at a concentration of 300 nM)”.

As for `O=C1CCC(N2C(=O)c3ccc(N4CCN(CCCOCCCCNc5cccc6c5C(=O)N(C(C(=O)Nc5nccs5)c5cc(F)ccc5O)C6)CC4)cc3C2=O)C(=O)N1` (centres unmarked) [compound 289], the results for the IC50 on EGFR WT, at EGFR L858R/T790M/C797S and at EGFR L858R/T790M were 1200 nM, 190 nM and 1700 nM, respectively. Further, the “EGFR protein remaining” value in assay [1] was “C (>80% EGFR protein remaining after 72 hours of incubation with the test compound at a concentration of 300 nM)”.

Take `Cc1ncsc1-c1ccc([C@H](C)NC(=O)[C@H]2C[C@H](O)CN2C(=O)[C@@H](NC(=O)COCCOCCOCCOCCOC2CCN(c3nccc(Nc4cc5c(cn4)nc(C)n5C(C)C)n3)CC2)C(C)(C)C)cc1` [compound 284]: the IC50 was 30000 nM on EGFR Exon20NPG, 14000 nM on EGFR WT, 12000 nM on EGFR L858R/T790M/C797S and greater than 30000 nM on EGFR L858R/T790M. In addition, the “EGFR protein remaining” value in assay [1] was “C (>80% EGFR protein remaining after 72 hours of incubation with the test compound at a concentration of 300 nM)”.

Regarding `O=C1CCC(N2C(=O)c3ccc(N4CCN(CC5CCN(CCCc6cccc7c6C(=O)N(C(C(=O)Nc6nccs6)c6cc(F)ccc6O)C7)CC5)CC4)cc3C2=O)C(=O)N1` (centres unmarked) [compound 294], the half-inhibitory concentration (IC50) at EGFR WT came out at 3500 nM; on EGFR L858R/T790M/C797S, 170 nM; at EGFR L858R/T790M it was 810 nM. Also, the “EGFR protein remaining” value in assay [1] was “C (>80% EGFR protein remaining after 72 hours of incubation with the test compound at a concentration of 300 nM)”.

For the compound `O=C1CCC(N2C(=O)c3ccc(N4CCC(CN5CCC(OC/C=C/c6cccc7c6C(=O)N(C(C(=O)Nc6nccs6)c6cc(F)ccc6O)C7)CC5)CC4)cc3C2=O)C(=O)N1` (centres unmarked) [compound 298], the half-maximal inhibitory concentration (IC50) on EGFR WT was 1600 nM; at EGFR L858R/T790M/C797S, 540 nM; on EGFR L858R/T790M, 1400 nM. Also, the “EGFR protein remaining” value in assay [1] is “C (>80% EGFR protein remaining after 72 hours of incubation with the test compound at a concentration of 300 nM)”.

The values are drawn from patent publication US10994015B2, “EGFR proteolysis targeting chimeric molecules and associated methods of use” (Arvinas Operations, Inc., priority 2016, dated 2021).
